Tests used:
Assay in all cases: relative viability (nuclei count vs DMSO), 5 days (fraction); higher = more cells survive
NCI-H2087 = test system: NCI-H2087
Summary of the method: (§1)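 Values are medians from duplicate plates. Each reflects relative viability, defined as the nuclei count of treated wells over that of vehicle wells. Lung cancer cell lines in 1536-well plates were pin-tool dosed one day after seeding with one drug alone or with a fixed anchor-drug dose plus five library-drug doses (not always all listed) in √10 steps, then fixed, stained and imaged at 4× after 5 days.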

NCI-H2170 = test system: NCI-H2170
Summary of the method: as §1

NCI-H2228 = test system: NCI-H2228
Summary of the method: as §1

NCI-H23 = test system: NCI-H23
Summary of the method: as §1

NCI-H441 = test system: NCI-H441
Summary of the method: as §1

NCI-H650 = test system: NCI-H650
Summary of the method: as §1

NCI-H727 = test system: NCI-H727
Summary of the method: as §1

NCI-H838 = test system: NCI-H838
Summary of the method: as §1

PC-3 [JPC-3] = test system: PC-3 [JPC-3]
Summary of the method: as §1

SW 1573 = test system: SW 1573
Summary of the method: as §1

SW 900 = test system: SW 900
Summary of the method: as §1

UMC-11 = test system: UMC-11
Summary of the method: as §1

Cc1csc(=NC2CCCCC2)n1/N=C/c1ccc(O)c(O)c1O [MIM1] + CCNC(=O)c1noc(-c2cc(C(C)C)c(O)cc2O)c1-c1ccc(CN2CCOCC2)cc1 [Luminespib] (partner 0.01 µM)
relative viability (NCI-H2087; first compound 0.6325 µM): 0.183
relative viability (NCI-H2087; first compound 2 µM): 0.199
relative viability (NCI-H2087; first compound 6.325 µM): 0.176
relative viability (NCI-H2087; first compound 20 µM): 0.132
relative viability (NCI-H2170; first compound 0.2 µM): 0.707
relative viability (NCI-H2170; first compound 0.6325 µM): 0.497
relative viability (NCI-H2170; first compound 2 µM): 0.729
relative viability (NCI-H2170; first compound 6.325 µM): 0.473
relative viability (NCI-H2170; first compound 20 µM): 0.434
relative viability (NCI-H2228; first compound 0.2 µM): 0.18
relative viability (NCI-H2228; first compound 0.6325 µM): 0.155
relative viability (NCI-H2228; first compound 2 µM): 0.181
relative viability (NCI-H2228; first compound 6.325 µM): 0.151
relative viability (NCI-H2228; first compound 20 µM): 0.111
relative viability (NCI-H23; first compound 0.2 µM): 0.262
relative viability (NCI-H23; first compound 0.6325 µM): 0.208
relative viability (NCI-H23; first compound 6.325 µM): 0.198
relative viability (NCI-H23; first compound 20 µM): 0.211
relative viability (NCI-H441; first compound 0.2 µM): 0.253
relative viability (NCI-H441; first compound 2 µM): 0.327
relative viability (NCI-H441; first compound 6.325 µM): 0.354
relative viability (NCI-H441; first compound 20 µM): 0.191
relative viability (NCI-H650; first compound 0.2 µM): 0.822
relative viability (NCI-H650; first compound 0.6325 µM): 0.619
relative viability (NCI-H650; first compound 2 µM): 0.85
relative viability (NCI-H650; first compound 6.325 µM): 0.704
relative viability (NCI-H650; first compound 20 µM): 0.288
relative viability (NCI-H727; first compound 0.2 µM): 0.353
relative viability (NCI-H727; first compound 0.6325 µM): 0.309
relative viability (NCI-H727; first compound 2 µM): 0.386
relative viability (NCI-H727; first compound 6.325 µM): 0.386
relative viability (NCI-H727; first compound 20 µM): 0.392
relative viability (NCI-H838; first compound 0.2 µM): 0.372
relative viability (NCI-H838; first compound 0.6325 µM): 0.317
relative viability (NCI-H838; first compound 2 µM): 0.288
relative viability (NCI-H838; first compound 6.325 µM): 0.267
relative viability (NCI-H838; first compound 20 µM): 0.16
relative viability (PC-3 [JPC-3]; first compound 0.2 µM): 0.508
relative viability (PC-3 [JPC-3]; first compound 0.6325 µM): 0.661
relative viability (PC-3 [JPC-3]; first compound 2 µM): 0.674
relative viability (PC-3 [JPC-3]; first compound 6.325 µM): 0.65
relative viability (PC-3 [JPC-3]; first compound 20 µM): 0.594
relative viability (SW 1573; first compound 0.2 µM): 0.22
relative viability (SW 1573; first compound 0.6325 µM): 0.318
relative viability (SW 1573; first compound 2 µM): 0.194
relative viability (SW 1573; first compound 6.325 µM): 0.143
relative viability (SW 1573; first compound 20 µM): 0.069
relative viability (SW 900; first compound 0.2 µM): 0.174
relative viability (SW 900; first compound 0.6325 µM): 0.199
relative viability (SW 900; first compound 2 µM): 0.19
relative viability (SW 900; first compound 6.325 µM): 0.185
relative viability (SW 900; first compound 20 µM): 0.2
relative viability (UMC-11; first compound 0.2 µM): 1.03
relative viability (UMC-11; first compound 2 µM): 1.23
relative viability (UMC-11; first compound 6.325 µM): 0.686
relative viability (UMC-11; first compound 20 µM): 0.369
